Measured values reported in patent publication US20180207228A1, “PEPTIDE COMBINATIONS AND USES THEREOF FOR TREATING GRASS ALLERGY” (ALK-Abelló A/S, priority 2015, published 2018).
Where no end group is shown, it is not given here.

System: allergen specific T cells
Experiment: T cell proliferation assay (72 h) on donor derived T cell lines (TCL02/TCL03)
Format: cell-based, human
Settings: for donor coverage of homologue peptide compared with native Phleum peptide / T cell coverage of modified peptide compared to the parent peptide: 2 μg/ml; for donor coverage of homologue peptide compared with native Phleum peptide: TCL-02 DK-2, 21 donors; for T cell coverage of modified peptide compared to the parent peptide: TCL03-DK1 and DK2, 27 donors; for Proliferation % donor coverage (TCL-02 DK1): T cell lines TCL-02 DK1, 30 donors, hit criteria SI>=2, CPM>=1000; for Proliferation strength (TCL-02 DK1): T cell lines TCL-02 DK1, strength of response (average relative magnitude); for average relative magnitude: reference peptides of WO2010/089554, proliferation only
From the text: Isolated PBMCs (peripheral blood mononuclear cells) obtained from the donors described in Example 2 were CD8 depleted and the T cell lines were established by stimulating the cultures with nPhl p1, mix of nPhl p 2 and […] 5 and […] established for each of the donors tested by stimulating with the mixture of above listed allergens. Grass allergic donors were recruited (cohort DK1 including 30 grass allergic individuals, DK2 including 24 grass allergic individuals and US1 including 15 grass allergic individuals). PBMCs were isolated from freshly drawn heparinized blood by gradient centrifugation on lymphoprep (Nycomed, Norway), washed twice and re-suspended in RPMI 1640 medium with HEPES and ultraglutamine (Cambrex, Belgium) supplemented with 5% v/v human AB-serum (Cambrex, Belgium), 100 units/ml penicillin, and 0.1 mg/ml streptomycin (Sigma, St Louis, USA) (referred to as 5% AB-medium). Aliquots of the isolated PBMCs were frozen and were thawed later to stimulate the T cell lines. Additionally either fresh or thawed PBMCs were used as antigen presenting cells (APCs) in the proliferation assay as described later. In some cases the PBMCs were freezed at this stage and thawed later on to continue the experiment as described in the following. The isolated PBMCs (fresh or thawed) were CD8 depleted by MACS magnetic depletion according to the manufacturer's instructions (Miltenyi Biotec, Bergisch Gladbach, Germany). On day 0 the CD8-depleted PBMCs (2×10^6/ml) were stimulated in 1 ml bulk cultures in AB medium in 24 well plates (Nunc, Denmark) with the mixture of natural allergens: nPhl p 1 (0.5 μg/ml), mix of […]). […] On day 14 cells were harvested to obtain T cell line generation 01 (referred to as TCL01). Restimulation of T cell lines were performed in AB-medium with the thawed autologous PBMCs (10^6/well, irradiated 2500 Rad), the above mixture of natural allergens (concentration as mentioned above), and PHA-P (0.5 μg/ml, Difco, Detroit, Mich., USA). rIL-2 was added at day 17, 18 and 19. On day 24 cells were harvested to obtain T cell line generation 02 (referred as TCL02). T cells were isolated, washed, counted and used for T cell proliferation assay as described later. Remaining cells were frozen for later thawing and re-stimulations. The T cell line generation 2 (TCL02) were thawed and were re-stimulated with allogeneic Epstein Bar Virus transformed lymphoblastoid cell lines (EBV) B cells (JY cells, 10^5/well, irradiated 3500 Rad), allogeneic PBMCs (10^6/well, irradiated 2500 Rad), and 0.5 μg/ml PHA-P and subsequent addition of rIL-2 at days 3-5 to generate T cell line generation 03 (referred to as TCL03). […] To summarize ELISpot experiments were carried out at day 14 (with TCL01) and proliferation assay on either day 24 (with TCL02) or at day 34 (with TCL03). […] To ensure that all T cell epitopes regions from the major and intermediate grass allergens of the grass were identified T cell screening was carried out with either overlapping peptides or selected peptides. […] These were overlapping 20-mer peptides spanning the entire full length amino acid sequence of […] and selected high binder peptides from Phl p 4 were tested. Additionally 21, 15 mer peptides were tested which were derived from various group 1 and 5 allergens. Also, 67 peptides from homologous grass allergens were tested. Finally some reference peptides and mixes thereof were also tested. The 15-mer peptides were selected on the basis of predicted and measured promiscuous HLA binding and of sequence homology between known proteins sequences from the relevant pooideae grasses and the Bermuda grass. […] To get comprehensive data from all the donors the peptides were tested in both Fluorospot/Elispot (day 14, TCL01) and proliferation (day 24, TCL02).

| Molecule | donor coverage of homologue peptide compared with native Phleum peptide | other results |
| --- | --- | --- |
| CC[C@H](C)[C@H](NC(=O)[C@@H](NC(=O)[C@H](CCCNC(=N)N)NC(=O)[C@H](CC(C)C)NC(=O)[C@H](C)NC(=O)[C@H](CCC(=O)O)NC(=O)[C@@H](NC(=O)[C@H](CC(C)C)NC(=O)[C@@H](NC(=O)[C@H](C)NC(=O)[C@@H](NC(=O)[C@H](Cc1ccc(O)cc1)NC(=O)[C@H](C)NC(=O)[C@H](CC(=O)O)NC(=O)[C@H](Cc1ccc(O)cc1)NC(=O)[C@H](CCCCN)NC(=O)[C@H](C)NC(=O)[C@@H](N)CCC(=O)O)C(C)C)[C@@H](C)O)[C@@H](C)O)C(C)C)C(=O)N[C@@H](C)C(=O)NCC(=O)O [compound 345] | comparable donor coverage | – |
| YHFDLSGKAFGAMAKKGQED-OH [compound 316] | comparable to the native peptides | – |
| KDKWIELKESWGAVWRIDTP-OH [compound 308] | comparable to the native peptides | – |
| WGAIWRIDTPDKLTGPFTVR-NH2 [compound 258] | – | T cell coverage of modified peptide compared to the parent peptide: markedly increased T cell coverage |
| APEVKYAVFEAGLTKAITAM-OH [compound 365] | loose some of the donor coverage | – |
| VRYTTEGGTKSEFEDVIPEG-OH [compound 310] | low in donor coverage | – |
| PEVKYAVFEAALTKAIT-OH [compound 140] | – | Proliferation % donor coverage (TCL-02 DK1): 55.17%; Proliferation strength (TCL-02 DK1): 8.20; average relative magnitude: around 8 |
| FIPMKSSWGA-OH [compound 135] | – | Proliferation % donor coverage (TCL-02 DK1): 13.79%; Proliferation strength (TCL-02 DK1): 1.50 |
| DKYKTFVETFGTATNKAFVE-OH [compound 343] | better donor coverage than the native peptides | – |
| SEFEDVIPEGWKADTSYSAK-OH [compound 311] | low in donor coverage | – |
| CC[C@H](C)[C@H](NC(=O)[C@H](CCCCN)NC(=O)[C@H](CCC(=O)O)NC(=O)[C@@H](NC(=O)[C@H](CC(C)C)NC(=O)[C@H](CCCCN)NC(=O)[C@H](CCC(N)=O)NC(=O)[C@@H](N)CCC(=O)O)[C@@H](C)CC)C(=O)N[C@@H](CC(N)=O)C(=O)N[C@@H](C)C(=O)NCC(=O)N[C@@H](Cc1ccccc1)C(=O)N[C@@H](CCCCN)C(=O)N[C@@H](C)C(=O)N[C@@H](C)C(=O)N[C@H](C(=O)N[C@@H](C)C(=O)N[C@@H](C)C(=O)N[C@@H](C)C(=O)N[C@@H](C)C(=O)O)C(C)C [compound 341] | better donor coverage than the native peptides | – |
| KKPEVKYAVFEAALTKAIT-OH [compound 143] | – | Proliferation % donor coverage (TCL-02 DK1): 48.28%; Proliferation strength (TCL-02 DK1): 7.50; average relative magnitude: around 8 |
| Ac-WGAIWRIDTPDKLTGPFTVR-NH2 [compound 259] | – | T cell coverage of modified peptide compared to the parent peptide: markedly increased T cell coverage |
| KSSWGAIWRIDPKKPLK-OH [compound 136] | – | Proliferation % donor coverage (TCL-02 DK1): 17.24%; Proliferation strength (TCL-02 DK1): 1.90 |
| CC(C)[C@H](NC(=O)[C@@H](NC(=O)[C@H](Cc1ccccc1)NC(=O)[C@H](CCCCN)NC(=O)[C@H](CC(=O)O)NC(=O)[C@H](CC(N)=O)NC(=O)[C@H](C)NC(=O)[C@@H]1CCCN1C(=O)[C@H](C)NC(=O)[C@H](C)NC(=O)[C@H](CC(N)=O)NC(=O)[C@H](C)NC(=O)[C@H](C)NC(=O)[C@@H](NC(=O)[C@H](C)NC(=O)[C@H](C)NC(=O)[C@@H](NC(=O)[C@@H](N)CCCNC(=N)N)[C@@H](C)O)[C@@H](C)O)[C@@H](C)O)C(=O)N[C@@H](Cc1ccccc1)C(=O)N[C@@H](CCC(=O)O)C(=O)O [compound 348] | comparable donor coverage | – |
| KFIPTLVAAVKQAYAAKQAT-OH [compound 351] | loose some of the donor coverage | – |
| IRLTSEGGAHLVQDDVIPAN-OH [compound 323] | low in donor coverage | – |
| SGKAFGAMAKKGQED-OH [compound 134, SGKAFGAMAKKGQED] | – | Proliferation % donor coverage (TCL-02 DK1): 27.59%; Proliferation strength (TCL-02 DK1): 4.00 |

| Molecule | donor coverage of homologue peptide compared with native Phleum peptide | other results |
| --- | --- | --- |
| GRGSGSSFEIKSTKPESSSG-OH [compound 301] | comparable to the native peptides | – |
| GLGSRASYEIKSKEPVESSG-OH [compound 313] | low in donor coverage | – |
| PTPRTPPLLPPPRARDKATL-OH [compound 355] | better donor coverage than the native peptides | – |
| WGAVWRIDTPDKLTGPFTVR-OH [compound 309] | low in donor coverage | – |
| CC[C@H](C)[C@H](NC(=O)[C@H](Cc1ccccc1)NC(=O)[C@H](C)NC(=O)[C@H](CC(=O)O)NC(=O)[C@H](Cc1ccc(O)cc1)NC(=O)[C@H](CCCCN)NC(=O)[C@H](C)NC(=O)[C@@H](N)CCC(=O)O)C(=O)N[C@@H](C)C(=O)N[C@@H](C)C(=O)N[C@@H](CC(C)C)C(=O)N[C@H](C(=O)N[C@@H](CCC(=O)O)C(=O)N[C@@H](C)C(=O)N[C@@H](CC(C)C)C(=O)N[C@@H](CCCNC(=N)N)C(=O)N[C@H](C(=O)N[C@H](C(=O)N[C@@H](C)C(=O)NCC(=O)O)[C@@H](C)CC)C(C)C)[C@@H](C)O [compound 358] | comparable donor coverage | – |
| LKKAVTAMSEAEK-OH [compound 139] | – | Proliferation % donor coverage (TCL-02 DK1): 20.69%; Proliferation strength (TCL-02 DK1): 2.80 |
| TAATPATPATPATPAAVPSG [compound 340] | better donor coverage than the native peptides | – |
| WGAIWRIDPKKPLKGPFSIR-OH [compound 322] | not recognized by the T cell lines | – |
| KFIPTLVAAVKQAYAAKQ-OH [compound 138] | – | Proliferation % donor coverage (TCL-02 DK1): 31.03%; Proliferation strength (TCL-02 DK1): 4.20 |
| YHFDLSGHAFGSMAKKGEEQ-OH [compound 303] | comparable to the native peptides | – |
| LVQDDVIPANWKPDTVYTSK-OH [compound 324] | low in donor coverage | – |
| SLGAAYDSYKFIPTLVAAVK-OH [compound 350] | loose some of the donor coverage | – |
| GFKAAVAAAAVVPPADKYKT-OH [compound 342] | better donor coverage than the native peptides | – |
| SDEFIPMKSSWGAIWRIDPK-OH [compound 321] | comparable to the native peptides | – |
| ASRRPWWASVPPADKFKTFA-OH [compound 356] | loose some of the donor coverage | – |
| IDKVDAAYRTAATAANAAPA-OH [compound 347] | comparable donor coverage | – |
| KYDAYVATLTEALR-OH [compound 137] | – | Proliferation % donor coverage (TCL-02 DK1): 27.59%; Proliferation strength (TCL-02 DK1): 6.30 |
| CC[C@H](C)[C@H](NC(=O)[C@H](C)NC(=O)[C@H](CCCCN)NC(=O)[C@@H](NC(=O)[C@H](CC(C)C)NC(=O)[C@H](C)NC(=O)[C@H](C)NC(=O)[C@H](CCC(=O)O)NC(=O)[C@H](Cc1ccccc1)NC(=O)[C@@H](NC(=O)[C@H](C)NC(=O)[C@H](Cc1ccc(O)cc1)NC(=O)[C@H](CCCCN)NC(=O)[C@@H](NC(=O)[C@H](CCC(=O)O)NC(=O)[C@@H]1CCCN1C(=O)[C@@H](N)CCCCN)C(C)C)C(C)C)[C@@H](C)O)C(=O)N[C@H](C(=O)O)[C@@H](C)O [compound 242] | – | Proliferation % donor coverage (TCL-02 DK1): 48.28%; Proliferation strength (TCL-02 DK1): 7.20 |
